Experimental data taken from US9012431B2, “Boron-containing small molecules as anti-inflammatory agents” (Anacor Pharmaceuticals, Inc., priority 2008, dated 2015).

Legend:
IL-5 = experiment: Cytokine assay, IL-5 release from PBMC; assay type: cell-based; conditions: human PBMC, 20 ug/mL PHA; for IC50: supernatant at 48 hours
Method in brief: (§1)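 Cytokine released into the medium was the read-out. Thawed human peripheral blood mononuclear cells in RPMI 1640/10% FBS received test article at 0.01–10 μM, in triplicate wells.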

IL-2 = experiment: Cytokine assay, IL-2 release from PBMC; assay type: cell-based; conditions: human PBMC, 20 ug/mL PHA; for IC50: supernatant at 24 hours
Method in brief: as §1

BALB/c male mice = experiment: Oxazolone Induced Mouse Ear Edema Model; assay type: in vivo; conditions: for inhibition in vivo at 1 mg: 1 mg/ear × 2 topical; for inhibition in vivo at 3 mg: 3 mg/ear × 2 topical; for inhibition in vivo at 0.2 mg: 0.2 mg/ear × 2 topical
Description: 2. In Vivo Anti-Inflammation Activity in Oxazolone Induced Mouse Ear Edema Model
Groups of 5 BALB/c male mice weighing 23±2 g were used. The preshaved abdomens of test animals were sensitized by application of 100 μl, of 1.5% oxazolone solution dissolved in acetone. Seven days after the initial sensitization, test substances, as well as vehicle (acetone:ethanol/1:1, 20 μL/ear) were each administered topically to the anterior and posterior surfaces of the right ear 30 minutes before, and 15 minutes after, challenge by a second application of oxazolone (1% in acetone, […]) via topical route. As a positive control, indomethacin (0.3 mg/ear×2) was administered topically using the same treatment regime as for the test compounds. Twenty-four hours after the second application of oxazolone, the ear thickness of each mouse was measured with a Dyer model micrometer gauge. A 30 percent or more inhibition in ear swelling relative to the vehicle control was considered significant and indicated possible anti-inflammatory activity.

TNF-α = experiment: Cytokine assay, TNF-α release from PBMC; assay type: cell-based; conditions: 1 μg/mL LPS; for IC50: Homo sapiens, PBMC, 24 h, supernatant at 24 hours
Method in brief: as §1

[1] = tested on: T1, PDE4 partially purified from human U-937 myeloid leukemia cells; experiment: PDE4 Assay (enzyme from U-937 cells, [3H]cAMP); assay type: biochemical; conditions: PDE4 from U-937 cells, Tris buffer pH 7.5, 20 minutes at 25° C.
T1 construct: PDE4 partially purified from human U-937 myeloid leukemia cells was used

IL-10 = experiment: Cytokine assay, IL-10 release from PBMC; assay type: cell-based; conditions: human PBMC, 20 ug/mL PHA; for IC50: supernatant at 48 hours
Method in brief: as §1

IFN-γ = experiment: Cytokine assay, IFN-γ release from PBMC; assay type: cell-based; conditions: human PBMC, 20 ug/mL PHA, supernatant at 24 hours
Method in brief: as §1

[2] = tested on: CD-1 (Crl.) derived male mice; experiment: Phorbol Ester Induced Mouse Ear Edema Model; assay type: in vivo; conditions: topical, 6 h; for inhibition in vivo at 1 mg: 1 mg/ear × 2 topical; for inhibition in vivo at 0.2 mg: 0.2 mg/ear × 2 topical; for inhibition in vivo at 0.02 mg: 0.02 mg/ear × 2 topical; for inhibition in vivo at 0.06 mg: 0.06 mg/ear × 2 topical
Description: 1. In Vivo Anti-Inflammation Activity in Phorbol Ester Induced Mouse Ear Edema Model
[…] Dexamethasone (1 mg/ear×2) used as the positive control was administered topically to test animals using the same application schedule. Ear swelling was then measured by a Dyer model micrometer gauge at 6 hours after PMA application as an index of inflammation. Percent inhibition was calculated according to the formula: [(Ic−It)/Ic]×100%, where Ic and It refer to increase of ear thickness (mm) in control and treated mice, respectively.

[3] = Acetone:Ethanol/1:1, ear thickness 24 hours after second oxazolone application
[4] = Acetone:Ethanol/1:1, ear swelling 6 hours after PMA
[5] = 95% Ethanol, ear thickness 24 hours after second oxazolone application
[6] = 95% Ethanol, ear swelling 6 hours after PMA

SMILES | IC50 (IL-5) [µM] | IC50 (IL-2) [µM] | inhibition in vivo at 1 mg (BALB/c male mice; [3]) [%] | IC50 (TNF-α) [µM] | IC50 [1] [µM] | IC50 (IL-10) [µM] | IC50 (IFN-γ) [µM] | other results
N#Cc1ccc(Oc2ccc3c(c2)COB3O)c(Cl)c1 [D4, 5-(2-Chloro-4-cyanophenoxy)-1,3-dihydro-1-hydroxy-2,1-benzoxaborole] | < 1 | < 1 | 30 to 40 | < 1 | < 1 | > 10 | < 1 | inhibition in vivo at 0.02 mg (BALB/c male mice; 0.02 mg/ear × 2 topical, Acetone:Ethanol/1:1, ear thickness 24 hours after second oxazolone application): < 20%
N#Cc1ccc(Oc2ccc3c(c2)COB3O)cc1C(F)(F)F [D5, 5-(4-Cyano-3-trifluoromethylphenoxy)-1,3-dihydro-1-hydroxy-2,1-benzoxaborole] | < 1 | 1 to 4 | 30 to 40 | < 1 | < 1 | > 10 | < 1 | inhibition in vivo at 1 mg [2, 4]: 30 to 60%
COc1cc(C#N)ccc1Oc1ccc2c(c1)COB2O [D15, 5-(4-Cyano-2-methoxyphenoxy)-1,3-dihydro-1-hydroxy-2,1-benzoxaborole] |  | < 1 | 40 to 60 | < 1 | < 1 |  | < 1 | inhibition in vivo at 1 mg [2, 4]: 30 to 60%
CCOC(=O)COc1cc(C#N)ccc1Oc1ccc2c(c1)COB2O [D16, 5-[4-Cyano-2-(ethoxycarbonylmethoxy)phenoxy]-1,3-dihydro-1-hydroxy-2,1-benzoxaborole] |  | 1 to 4 |  | < 1 | < 1 |  | < 1 | inhibition in vivo at 3 mg (BALB/c male mice; [5]): < 20%; inhibition in vivo at 0.2 mg [2, 4]: 60 to 90%; inhibition in vivo at 1 mg [2, 4]: 90 to 100%
CCOC(=O)c1ccc(Oc2ccc3c(c2)COB3O)nc1OCC [D27, Ethyl 2-ethoxy-6-(1-hydroxy-1,3-dihydrobenzo[c][1,2]oxaborol-5-yloxy)nicotinate] |  | < 1 |  | < 1 | < 1 |  | < 1 | inhibition in vivo at 3 mg (BALB/c male mice; [5]): 20 to 30%
CCOC(=O)c1cnc(Oc2ccc3c(c2)COB3O)c(Cl)c1 [D48, Ethyl 5-chloro-6-(1-hydroxy-1,3-dihydrobenzo[c][1,2]oxaborol-5-yloxy)nicotinate] |  | < 1 | 20 to 30 | < 1 | < 1 |  | < 1 | inhibition in vivo at 0.2 mg (BALB/c male mice; [3]): < 20%; inhibition in vivo at 0.2 mg [2, 4]: < 30%; inhibition in vivo at 1 mg [2, 4]: < 30%
O=C(O)c1ccc(Oc2ccc3c(c2)COB3O)nc1 [D61, 6-(1-Hydroxy-1,3-dihydrobenzo[c][1,2]oxaborol-5-yloxy)nicotinic acid] |  |  | < 20 |  |  |  |  | inhibition at 10 µM (IL-5; 48 hours, 10 μM): 30 to 60%; inhibition at 10 µM (IL-2; 24 hours, 10 μM): < 30%; inhibition in vivo at 0.1 mg (BALB/c male mice; 0.1 mg/ear × 2 topical, Acetone:Ethanol/1:1, ear thickness 24 hours after second oxazolone application): < 20%; inhibition in vivo at 0.2 mg (BALB/c male mice; [3]): < 20%; inhibition at 10 µM (TNF-α; human PBMC, 24 hours, 10 μM): < 30%; inhibition in vivo at 0.1 mg ([2]; 0.1 mg/ear × 2 topical, Acetone:Ethanol/1:1, ear swelling 6 hours after PMA): < 30%; inhibition in vivo at 0.2 mg [2, 4]: < 30%; inhibition in vivo at 1 mg [2, 4]: 30 to 60%; inhibition at 10 µM (IL-10; 48 hours, 10 μM): < 30%
CN(C)c1nc(Oc2ccc3c(c2)COB3O)ccc1C#N [D95, 2-Dimethylamino-6-(1-hydroxy-1,3-dihydro-benzo[c][1,2]oxaborol-5-yloxy)-nicotinonitrile] | < 1 | < 1 |  | < 1 | < 1 | 1 to 4 | < 1 | inhibition in vivo at 0.02 mg [2, 6]: < 30%; inhibition in vivo at 0.06 mg [2, 6]: < 30%; inhibition in vivo at 0.2 mg [2, 6]: < 30%
COCCN(C)c1nc(Oc2ccc3c(c2)COB3O)ccc1C#N [D96, 6-(1-hydroxy-1,3-dihydro-benzo[c][1,2]oxaborol-5-yloxy)-2-[(2-methoxy-ethyl)-methyl-amino]-nicotinonitrile] | 1 to 4 | < 1 | < 20 | < 1 | < 1 | 1 to 4 | < 1 | 
CN(CCO)c1ccc(C#N)c(Oc2ccc3c(c2)COB3O)n1 [D98, 2-(1-hydroxy-1,3-dihydro-benzo[c][1,2]oxaborol-5-yloxy)-6-[(2-hydroxy-ethyl)-methyl-amino]-nicotinonitrile] | < 1 | < 1 |  | < 1 | < 1 | < 1 | < 1 | inhibition in vivo at 0.02 mg [2, 6]: < 30%; inhibition in vivo at 0.06 mg [2, 6]: < 30%; inhibition in vivo at 0.2 mg [2, 6]: 30 to 60%
N#Cc1ccc(Oc2ccc3c(c2)COB3O)nc1OC1CCCC1 [D100, 2-Cyclopentyloxy-6-(1-hydroxy-1,3-dihydro-benzo[c][1,2]oxaborol-5-yloxy)-nicotinonitrile] | < 1 | < 1 |  | < 1 | < 1 | < 1 | < 1 | inhibition in vivo at 0.028 mg ([2]; 0.028 mg/ear × 2 topical, 95% Ethanol, ear swelling 6 hours after PMA): < 30%; inhibition in vivo at 0.28 mg ([2]; 0.28 mg/ear × 2 topical, 95% Ethanol, ear swelling 6 hours after PMA): 30 to 60%
COCCNc1ccc(C#N)c(Oc2ccc3c(c2)COB3O)n1 [D101, 2-(1-Hydroxy-1,3-dihydro-benzo[c][1,2]oxaborol-5-yloxy)-6-(2-methoxy-ethylamino)-nicotinonitrile] | < 1 | < 1 |  | < 1 | < 1 | 1 to 4 | < 1 | inhibition in vivo at 0.8 mg ([2]; 0.8 mg/ear × 2 topical, 95% Ethanol, ear swelling 6 hours after PMA): < 30%; inhibition in vivo at 2.4 mg ([2]; 2.4 mg/ear × 2 topical, 95% Ethanol, ear swelling 6 hours after PMA): < 30%
COc1cc(Oc2ccc3c(c2)COB3O)ncc1C#N [D109, 6-(1-Hydroxy-1,3-dihydro-benzo[c][1,2]oxaborol-5-yloxy)-4-methoxy-nicotinonitrile] | < 1 | < 1 |  | < 1 | < 1 | < 1 | < 1 | inhibition in vivo at 0.02 mg [2, 6]: < 30%; inhibition in vivo at 0.067 mg ([2]; 0.067 mg/ear × 2 topical, 95% Ethanol, ear swelling 6 hours after PMA): < 30%; inhibition in vivo at 0.2 mg [2, 6]: < 30%
CNc1nc(Oc2ccc3c(c2)COB3O)ccc1C#N [D110, 6-(1-Hydroxy-1,3-dihydro-benzo[c][1,2]oxaborol-5-yloxy)-2-methylamino-nicotinonitrile] | < 1 | < 1 |  | < 1 | < 1 | > 10 | < 1 | inhibition in vivo at 0.02 mg [2, 6]: < 30%; inhibition in vivo at 0.06 mg [2, 6]: < 30%; inhibition in vivo at 0.2 mg [2, 6]: < 30%
COCCNc1nc(Oc2ccc3c(c2)COB3O)ccc1C#N [D111, 6-(1-Hydroxy-1,3-dihydro-benzo[c][1,2]oxaborol-5-yloxy)-2-(2-methoxy-ethylamino)-nicotinonitrile] |  |  |  | < 1 |  |  |  | inhibition in vivo at 0.15 mg (BALB/c male mice; 0.15 mg/ear × 2 topical, 95% Ethanol, ear thickness 24 hours after second oxazolone application): < 20%; inhibition in vivo at 0.015 mg ([2]; 0.015 mg/ear × 2 topical, 95% Ethanol, ear swelling 6 hours after PMA): < 30%; inhibition in vivo at 0.05 mg ([2]; 0.05 mg/ear × 2 topical, 95% Ethanol, ear swelling 6 hours after PMA): < 30%; inhibition in vivo at 0.15 mg ([2]; 0.15 mg/ear × 2 topical, 95% Ethanol, ear swelling 6 hours after PMA): < 30%; inhibition in vivo at 1 mg [2, 6]: < 30%
COc1nc(Oc2cc3c(cc2F)B(O)OC3)ccc1C#N [D122, 6-(6-Fluoro-1-hydroxy-1,3-dihydrobenzo[c][1,2]oxaborol-5-yloxy)-2-methoxynicotinonitrile] | < 1 | < 1 | < 20 | < 1 | < 1 | < 1 | < 1 | 
COc1ccc2c(c1)c(CC(=O)O)c(C)n2C(=O)c1ccc(Cl)cc1 [Indomethacin, indomethacin, reference compound] |  |  |  |  |  |  |  | inhibition in vivo at 0.3 mg (BALB/c male mice; 0.3 mg/ear × 2 topical, 95% Ethanol, ear thickness 24 hours after second oxazolone application): 40 to 60%
